Values of other authors, collected in US20090304885A1, “Coffee and Tea Baking Compounds and Method of Producing The Same” (priority 2008, published 2009).

Tests used:
[1] = animal models
[2] = system: Serratia marcescens
[3] = system: Enterobacter cloacae
[4] = system: methylazoxymethanol-induced large intestinal tumors; settings: hamster

| Structure (SMILES) | cancer preventive activities [1] | antibacterial effect [2] | antibacterial effect [3] | inhibition of tumors [4] |
| --- | --- | --- | --- | --- |
| O=C(O)/C=C/c1ccc(O)c(O)c1 [caffeic acid] | exert cancer preventive activities |  |  |  |
| Cn1c(=O)c2c(ncn2C)n(C)c1=O [caffeine] |  | particularly strong effect | particularly strong effect |  |
| O=C(/C=C/c1ccc(O)c(O)c1)O[C@@H]1C[C@](O)(C(=O)O)C[C@@H](O)[C@H]1O [chlorogenic acid] |  | particularly strong effect | particularly strong effect | inhibit |
| O=C(O)/C=C/c1ccc(O)cc1 [para-coumaric acid] | exert cancer preventive activities |  |  |  |
| O=C(O)c1ccc(O)c(O)c1 [protocatechuic acid] |  | particularly strong effect | particularly strong effect |  |
